Results as given in patent US4548820A, “Xanthine compounds” (Adir, priority 1982, dated 1985).

Tests used:
[1] = system: effect produced in the guinea pig by a histamine aerosol; assay: Test of A. K. Armitage, histamine aerosol at 4%; type: in vivo; conditions: oral administration of 5 mg/kg
Procedure: When submitted to the test of A. K. Armitage, Brit J. Pharmacol. 17, 196, (1961), the compounds according to the invention administered by oral route at doses between 0.5 and 10 mg/kg, depending on the compounds, inhibit by 50% the effect produced in the guinea pig by a histamine aerosol at 4%. For certain of these compounds, the effect is still very strong 48 hours after oral administration.
By way of non-restricting example, the oral administration of 5 mg/kg of the compound of example 1, inhibits for more than 48 hours the broncho-spasm caused be a histamine aerosol at 4%. In addition, a reduction of the anaphylactic cutaneous reaction is observed in the rat after a single administration of 20 mg/kg per os of this compound.

A 1 receptors = target: T1, A 1 receptors (Homo sapiens, UniProt P30542); assay: Purinergic A 1 receptors; type: binding
T1 sequence (P30542 1-326): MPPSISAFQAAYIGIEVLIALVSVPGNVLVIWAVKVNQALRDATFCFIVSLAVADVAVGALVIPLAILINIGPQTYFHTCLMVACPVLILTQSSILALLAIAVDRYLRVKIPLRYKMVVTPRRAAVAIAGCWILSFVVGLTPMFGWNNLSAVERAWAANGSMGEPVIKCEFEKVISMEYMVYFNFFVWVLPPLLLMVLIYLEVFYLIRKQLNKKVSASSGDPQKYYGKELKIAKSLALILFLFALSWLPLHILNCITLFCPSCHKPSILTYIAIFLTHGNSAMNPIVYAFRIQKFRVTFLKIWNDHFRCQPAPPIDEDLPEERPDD

Question: What does the source list for `CC(C)Cn1c(=O)n(C)c(=O)c2[nH]c(CCN3CCN(C(c4ccccc4)c4ccccc4)CC3)nc21` [Example 1, 1-methyl-3-isobutyl-8-[2-(4-diphenylmethyl-piperazinyl)ethyl]xanthine]?
Answer: duration of inhibition of the broncho-spasm caused by a histamine aerosol at 4% [1]: more than 48 hours; IC50 (A 1 receptors): > 100 µM
